Assay results from PubChem BioAssay (NCI).
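Following 48 hours of exposure in 96-well plates, responses at five concentrations were used to interpolate endpoints linearly. At the GI50, growth is halved. TGI is the concentration that stops growth completely.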

How the values were obtained:
Assay in all cases: NCI tumour cell line growth inhibition, 48 h
786-0 renal = tested on: 786-0 renal
HCT-15 colon = tested on: HCT-15 colon
LOX IMVI melanoma = tested on: LOX IMVI melanoma
NCI-H226 lung = tested on: NCI-H226 lung
SF-539 CNS = tested on: SF-539 CNS
SK-MEL-2 melanoma = tested on: SK-MEL-2 melanoma
SK-MEL-28 melanoma = tested on: SK-MEL-28 melanoma
SW-620 colon = tested on: SW-620 colon
U251 CNS = tested on: U251 CNS
TK-10 renal = tested on: TK-10 renal

| SMILES | TGI (786-0 renal) [µM] | TGI (HCT-15 colon) [µM] | TGI (LOX IMVI melanoma) [µM] | TGI (NCI-H226 lung) [µM] | TGI (SF-539 CNS) [µM] | TGI (SK-MEL-2 melanoma) [µM] | TGI (SK-MEL-28 melanoma) [µM] | TGI (SW-620 colon) [µM] | TGI (U251 CNS) [µM] | GI50 (786-0 renal) [µM] | GI50 (HCT-15 colon) [µM] | GI50 (LOX IMVI melanoma) [µM] | GI50 (NCI-H226 lung) [µM] | GI50 (SF-539 CNS) [µM] | GI50 (SK-MEL-2 melanoma) [µM] | GI50 (SK-MEL-28 melanoma) [µM] | GI50 (SW-620 colon) [µM] | GI50 (TK-10 renal) [µM] | TGI (TK-10 renal) [µM] | GI50 (U251 CNS) [µM] |
| --- | --- | --- | --- | --- | --- | --- | --- | --- | --- | --- | --- | --- | --- | --- | --- | --- | --- | --- | --- | --- |
| O=C(Nc1ccc(Cl)cc1Cl)C(=O)C(C(=O)c1ccc2ccccc2c1)C1OC(=O)c2ccccc21 (stereo unspecified) | 19.5 | 42.3 | 24.9 | 6.33 | 11.7 | 31.7 | 15.3 | 24.9 | 16.2 |  |  |  |  |  |  |  |  |  |  |  |
| CCc1n(Cc2ccc3ccccc3n2)cc[n+]1Cc1ccc2ccccc2n1 | > 100 | > 100 | 13.2 | 30.8 | 15.8 | 2.11 | 14.7 | 30.2 | 13.5 | 31.2 | 65.7 | 0.596 | 2.56 | 0.681 | 0.217 | 0.196 | 1.39 | 5.5 | 26.3 | 0.186 |
| COc1ccc2c(c1)/C(=C\c1cccnc1)C(=O)N2 | 45.7 | 39.5 | 25.3 | 23.6 |  | > 100 | 64.7 | > 100 | 47.7 | 18.3 | 14.4 | 8.83 | 7.38 |  | 42.3 | 23.4 | 41 | 18.5 | 44.6 | 7.84 |
| CN1CCN(c2ccc(NC(=O)c3nc4ccc5[nH]ncc5c4c4c3CCCC4)cc2C(F)(F)F)CC1 | 1.52 | 1.78 | 1.55 | 17.7 | 1.61 | 19.1 | 1.71 | 2.2 | 1.77 | 0.841 | 0.845 | 0.836 | 4.36 | 0.851 | 7.33 | 0.941 | 0.947 | 1.04 | 2.2 | 0.926 |
| O=C(O)C1C2CCC(O2)C1C(=O)N1CCCCC1 (stereo unspecified) | 15 | 26.1 | 23.3 | 16.6 | 23.5 | 21.2 | 19.5 | 15 | 17 |  |  |  |  |  |  |  |  |  | 8.42 |  |
| CCCNCCCC(NC(C)=O)C(=O)NCc1ccccc1 (stereo unspecified) | > 100 | > 100 | > 100 | > 100 | > 100 | > 100 | > 100 | > 100 | > 100 |  |  |  |  |  |  |  |  |  | > 100 |  |
| O=C(c1ccc(Cl)cc1)c1ccc(OCCCCCCCCCCOc2ccc(C(=O)c3ccc(Cl)cc3)cc2)cc1 | > 100 | > 100 | > 100 | > 100 |  | > 100 | > 100 | > 100 | > 100 |  |  |  |  |  |  |  |  |  | > 100 |  |
| O=C1C=C(NCCNC(=S)Nc2ccccc2)c2nccc3c2c1nc1ccccc13 | > 100 | > 100 | > 100 | > 100 | > 100 | > 100 | > 100 | > 100 | > 100 | 94.5 | 34.9 | 31.5 | 70 | 49.1 | > 100 | > 100 | 32.2 | 51.9 | > 100 | 58.9 |
| COc1ccccc1/C=C1\CCC(CCN(C)C)(C2=CCCC2)C1=O (stereo unspecified) | 28.5 | 61.8 | 31.3 | 40.5 | 29.5 | 35.6 | 32.7 | 32.1 | 31.1 |  |  |  |  |  |  |  |  |  | 37.5 |  |
| C=C1SC(=Nc2c(C)cc(C)cc2C)N(C(=O)c2sc3ccccc3c2Cl)C12CCCCC2 | > 100 | > 100 | > 100 | > 100 | > 100 | > 100 | > 100 | > 100 | > 100 | > 100 | > 100 | > 100 | > 100 | > 100 | 61.6 | > 100 | 31.1 | > 100 | > 100 | > 100 |
| CC1(C)CC[C@H](Nc2ncc(C(F)(F)F)c(-c3c[nH]c4c(P(C)(C)=O)c(C#N)ccc34)n2)CN1 | 19.2 | 15.1 | 7.44 | 6.78 | 4.73 | 6.9 | 9.2 | 13.2 | 23.7 | 0.201 | 0.21 | 0.0297 | 0.165 | 0.245 | 0.283 | < 0.01 | 0.0225 | 0.711 | > 53.9 | 0.0771 |
| CC(C)CNCC(O)COc1ccc(C(C)(C)c2ccc(OCC(O)CNCC(C)C)cc2)cc1 (stereo unspecified) | 3.03 | 7.35 | 3.04 | 26.2 | 3.23 | 3.57 | 3.69 | 3.46 | 2.91 | 1.5 | 2.2 | 1.57 | 8.27 | 1.71 | 1.81 | 1.8 | 1.72 | 2.03 | 5.32 | 1.55 |
| O=[N+]([O-])c1ccc(S(=O)Cc2ccccc2)c([N+](=O)[O-])c1 (stereo unspecified) | 17.3 | 3.88 | 2.94 | 5.3 | 13.8 | 22.3 | 4.13 | 2.65 | 24.3 | 4.91 | 1.85 | 1.6 | 2.27 | 3.64 | 8.54 | 1.89 | 1.33 | 1.78 | 3.16 | 11.4 |
| COc1ccc(-c2oc3c(OC)c(OC)c(OC)c(O)c3c(=O)c2OC)cc1OC | > 77.9 | > 100 | > 76.3 | > 88.7 | > 71.4 | 66.2 | > 100 | > 66.1 | > 100 |  |  |  |  |  |  |  |  |  | > 100 |  |
| COc1cc(/C=C\c2ccccc2)cc(OC)c1OC | > 52.8 | 36 | > 100 | 24.1 | 7.47 | 26.2 | > 100 | > 100 | 29.4 |  |  |  |  |  |  |  |  |  | > 50.3 |  |
